The values that follow are results of earlier work, collected in patent US5064812A, “Metal complexes of N-acetyl-glucosaminyl-N-acetyl-muramoyl-L-alanyl-D-isoglutaminyl-(L)-mes o-diamino-pimelyl-(D-amide)-(L)-D-alanyl-D-alanine and their use in pharmaceuticals” (Sour Pliva, priority 1986, dated 1991).

The conditions of data set [1]: prior art literature.
For data set [2] the following is noted: prior art literature. The source holds these as a separate data set.

Regarding “N-acetyl-glucosaminyl-N-acetyl-muramoyl-L-alanyl-D-isoglutaminyl-(L)-meso- diamino-pimelyl-(D-amide)-(L)-D-alanyl-D-alanine [PMG]”, the antimetastatic activity entry in data set [1] is “antimetastatic activity”. Also, the immunostimulating activity entry in data set [2] is listed as “significant immunostimulating”.
